From ChEMBL document CHEMBL3525934 (Drug Metab Dispos, 2013) come the findings set out here.

Format in all cases: ADME
Details in all cases: 0.5 h

Data set [1] addresses T1, Cytochrome P450 1A1 (Homo sapiens, UniProt P04798).
T1 sequence (P04798 whole entry): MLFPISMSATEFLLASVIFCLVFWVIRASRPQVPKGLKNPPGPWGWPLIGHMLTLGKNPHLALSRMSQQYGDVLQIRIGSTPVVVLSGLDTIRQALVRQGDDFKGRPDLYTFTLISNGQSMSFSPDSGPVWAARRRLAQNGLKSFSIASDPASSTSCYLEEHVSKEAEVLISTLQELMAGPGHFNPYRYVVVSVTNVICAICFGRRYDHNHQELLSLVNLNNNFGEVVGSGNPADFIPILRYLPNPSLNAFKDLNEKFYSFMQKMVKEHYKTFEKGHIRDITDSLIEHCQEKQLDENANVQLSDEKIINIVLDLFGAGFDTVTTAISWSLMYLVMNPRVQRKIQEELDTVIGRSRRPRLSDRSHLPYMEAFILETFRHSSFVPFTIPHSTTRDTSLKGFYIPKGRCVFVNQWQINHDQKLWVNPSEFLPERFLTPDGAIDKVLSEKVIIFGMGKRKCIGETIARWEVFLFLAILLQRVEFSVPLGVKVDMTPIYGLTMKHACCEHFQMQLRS
Briefly: Drug metabolism in supersomes expressing human recombinant CYP1A1 assessed as enzyme-mediated N-desmethylclozapine metabolite formation at 100 uM after 30 mins measured per nmol of P450 by HPLC analysis.

Data set [2] concerns the target T1, Cytochrome P450 1A1. The data set can be described thus: Drug metabolism in supersomes expressing human recombinant CYP1A1 assessed as enzyme-mediated cyanide adduct formation at 100 uM after 30 mins measured per nmol of P450 by HPLC analysis in presence of KCN.
Data set [3] addresses T1, Cytochrome P450 1A1. The data set can be described thus: Drug metabolism in supersomes expressing human recombinant CYP1A1 assessed as enzyme-mediated clozapine-N-oxide metabolite formation at 100 uM after 30 mins measured per nmol of P450 by HPLC analysis.
The target in data set [4] is T2, Cytochrome P450 1A2 (Homo sapiens, UniProt P05177).
T2 sequence (P05177 whole entry): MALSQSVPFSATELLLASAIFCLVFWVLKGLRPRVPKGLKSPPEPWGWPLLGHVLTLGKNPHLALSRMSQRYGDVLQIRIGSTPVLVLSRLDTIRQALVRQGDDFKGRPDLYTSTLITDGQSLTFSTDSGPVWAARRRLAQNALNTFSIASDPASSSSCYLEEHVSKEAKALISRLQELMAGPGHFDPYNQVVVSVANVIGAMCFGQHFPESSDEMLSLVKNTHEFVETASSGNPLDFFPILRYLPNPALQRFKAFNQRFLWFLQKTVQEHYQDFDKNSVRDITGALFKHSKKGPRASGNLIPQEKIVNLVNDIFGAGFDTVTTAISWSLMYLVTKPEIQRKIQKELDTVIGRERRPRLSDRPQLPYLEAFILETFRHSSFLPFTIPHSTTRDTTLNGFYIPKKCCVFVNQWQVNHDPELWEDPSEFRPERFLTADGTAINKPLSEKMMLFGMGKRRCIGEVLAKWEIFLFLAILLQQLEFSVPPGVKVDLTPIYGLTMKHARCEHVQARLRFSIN
The data set can be described thus: Drug metabolism in supersomes expressing human recombinant CYP1A2 assessed as enzyme-mediated N-desmethylclozapine metabolite formation at 100 uM after 30 mins measured per nmol of P450 by HPLC analysis.

For data set [5], the target named is T3, Cytochrome P450 1B1 (Homo sapiens, UniProt Q16678).
T3 sequence (Q16678 whole entry): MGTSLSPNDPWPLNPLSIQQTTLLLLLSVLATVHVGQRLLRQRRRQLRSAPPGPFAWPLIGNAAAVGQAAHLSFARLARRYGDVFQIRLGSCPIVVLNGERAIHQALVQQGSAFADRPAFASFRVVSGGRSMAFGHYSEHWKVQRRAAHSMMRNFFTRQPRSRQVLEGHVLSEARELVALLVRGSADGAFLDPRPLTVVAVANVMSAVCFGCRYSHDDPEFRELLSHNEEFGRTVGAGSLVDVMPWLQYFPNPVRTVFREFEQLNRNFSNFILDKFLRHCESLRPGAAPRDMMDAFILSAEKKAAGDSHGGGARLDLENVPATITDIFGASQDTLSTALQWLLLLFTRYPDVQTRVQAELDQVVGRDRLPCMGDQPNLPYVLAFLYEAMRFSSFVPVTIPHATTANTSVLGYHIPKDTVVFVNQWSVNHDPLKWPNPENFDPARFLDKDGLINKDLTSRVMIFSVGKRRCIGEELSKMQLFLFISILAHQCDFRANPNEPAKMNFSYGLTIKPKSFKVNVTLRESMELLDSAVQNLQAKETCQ
Briefly: Drug metabolism in supersomes expressing human recombinant CYP1B1 assessed as enzyme-mediated N-desmethylclozapine metabolite formation at 10 uM after 30 mins measured per nmol of P450 by HPLC analysis.

The target of data set [6] is T3, Cytochrome P450 1B1. The data set can be described thus: Drug metabolism in supersomes expressing human recombinant CYP1B1 assessed as enzyme-mediated cyanide adduct formation at 100 uM after 30 mins measured per nmol of P450 by HPLC analysis in presence of KCN.
Data set [7] deals with T4, Cytochrome P450 2D6 (Homo sapiens, UniProt P10635). Briefly: Drug metabolism in supersomes expressing human recombinant CYP2D6 assessed as enzyme-mediated N-desmethylclozapine metabolite formation at 10 uM after 30 mins measured per nmol of P450 by HPLC analysis.
T4 sequence (P10635 whole entry): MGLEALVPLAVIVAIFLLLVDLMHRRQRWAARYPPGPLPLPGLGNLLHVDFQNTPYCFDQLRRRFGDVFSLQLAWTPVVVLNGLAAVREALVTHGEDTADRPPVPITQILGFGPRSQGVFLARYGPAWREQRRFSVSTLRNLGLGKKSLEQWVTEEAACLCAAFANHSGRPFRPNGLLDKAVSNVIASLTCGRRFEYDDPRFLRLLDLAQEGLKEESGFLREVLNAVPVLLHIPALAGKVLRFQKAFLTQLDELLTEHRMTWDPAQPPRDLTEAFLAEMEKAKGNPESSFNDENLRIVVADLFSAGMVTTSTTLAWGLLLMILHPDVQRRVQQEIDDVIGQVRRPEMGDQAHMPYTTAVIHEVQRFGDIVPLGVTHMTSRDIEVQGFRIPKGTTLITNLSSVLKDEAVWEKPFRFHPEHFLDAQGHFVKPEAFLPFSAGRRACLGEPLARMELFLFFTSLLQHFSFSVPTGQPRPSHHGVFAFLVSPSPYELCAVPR
Data set [8] addresses T2, Cytochrome P450 1A2. The data set can be described thus: Drug metabolism in supersomes expressing human recombinant CYP1A2 assessed as enzyme-mediated clozapine-N-oxide metabolite formation at 10 uM after 30 mins measured per nmol of P450 by HPLC analysis.
Data set [9] deals with T4, Cytochrome P450 2D6. The data set can be described thus: Drug metabolism in supersomes expressing human recombinant CYP2D6 assessed as enzyme-mediated clozapine-N-oxide metabolite formation at 10 uM after 30 mins measured per nmol of P450 by HPLC analysis.
The target in the next data set is Cytochrome P450 2C9 (Homo sapiens, UniProt P11712). The data set can be described thus: Drug metabolism in supersomes expressing human recombinant CYP2C9 assessed as enzyme-mediated clozapine-N-oxide metabolite formation at 100 uM after 30 mins measured per nmol of P450 by HPLC analysis.
Chain of Cytochrome P450 2C9 (P11712 whole entry): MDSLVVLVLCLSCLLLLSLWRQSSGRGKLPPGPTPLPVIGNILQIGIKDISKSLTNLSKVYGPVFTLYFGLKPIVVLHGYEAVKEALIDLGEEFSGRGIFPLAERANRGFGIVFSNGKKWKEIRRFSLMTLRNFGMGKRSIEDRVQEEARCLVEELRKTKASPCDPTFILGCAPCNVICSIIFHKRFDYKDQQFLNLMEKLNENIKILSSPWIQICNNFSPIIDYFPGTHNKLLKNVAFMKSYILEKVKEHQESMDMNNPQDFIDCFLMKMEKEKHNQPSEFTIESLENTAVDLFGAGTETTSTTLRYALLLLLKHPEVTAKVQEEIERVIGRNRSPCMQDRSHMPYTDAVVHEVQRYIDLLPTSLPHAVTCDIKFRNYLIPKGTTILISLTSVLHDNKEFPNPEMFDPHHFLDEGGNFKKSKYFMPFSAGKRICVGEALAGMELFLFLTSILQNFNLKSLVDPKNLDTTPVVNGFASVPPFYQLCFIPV
Data set [10] has as its target T1, Cytochrome P450 1A1. The data set can be described thus: Drug metabolism in supersomes expressing human recombinant CYP1A1 assessed as enzyme-mediated clozapine-N-oxide metabolite formation at 10 uM after 30 mins measured per nmol of P450 by HPLC analysis.
For another data set, the target named is Cytochrome P450 2C19 (Homo sapiens, UniProt P33261). Briefly: Drug metabolism in supersomes expressing human recombinant CYP2C19 assessed as enzyme-mediated clozapine-N-oxide metabolite formation at 10 uM after 30 mins measured per nmol of P450 by HPLC analysis.
Chain of Cytochrome P450 2C19 (P33261 whole entry): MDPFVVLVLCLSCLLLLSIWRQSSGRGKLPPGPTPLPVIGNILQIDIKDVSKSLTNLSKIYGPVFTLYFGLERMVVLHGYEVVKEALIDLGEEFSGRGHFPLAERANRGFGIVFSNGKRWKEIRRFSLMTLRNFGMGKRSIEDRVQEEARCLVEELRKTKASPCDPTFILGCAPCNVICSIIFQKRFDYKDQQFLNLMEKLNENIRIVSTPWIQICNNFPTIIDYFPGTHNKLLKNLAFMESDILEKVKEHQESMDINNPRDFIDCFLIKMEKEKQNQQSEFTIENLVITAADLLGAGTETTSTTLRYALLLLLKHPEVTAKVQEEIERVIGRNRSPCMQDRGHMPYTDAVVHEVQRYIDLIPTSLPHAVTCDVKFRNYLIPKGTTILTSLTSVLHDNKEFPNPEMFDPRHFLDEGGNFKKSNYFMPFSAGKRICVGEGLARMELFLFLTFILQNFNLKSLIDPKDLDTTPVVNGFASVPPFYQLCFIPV

Regarding `CN1CCN(C2=Nc3cc(Cl)ccc3Nc3ccccc32)CC1` [CLOZAPINE], the Drug metabolism on Cytochrome P450 1A1 [1] is listed as 0.56 nmol/min; on Cytochrome P450 1A1 [2] it was 0.024 nmol/min; at Cytochrome P450 1A1 [3], 0.2 nmol/min; on Cytochrome P450 1A2 [4], 8.71 nmol/min; on Cytochrome P450 1B1 [5], 1.16 nmol/min; on Cytochrome P450 1B1 [6], 0.01 nmol/min. In addition, the Drug metabolism on Cytochrome P450 2D6 [7] was found to be 8.43 nmol/min/nmol P450; on Cytochrome P450 1A2 [8] it was 0.55 nmol/min/nmol P450; at Cytochrome P450 2D6 [9], 0.51 nmol/min; at Cytochrome P450 2C9 it was 0.057 nmol/min; at Cytochrome P450 1A1 [10] it was 0.24 nmol/min; on Cytochrome P450 2C19 it was 0.71 nmol/min/nmol P450.
